Values quoted from earlier work as cited in patent US6323203A, “Composition and method for treating diabetes” (Beyer; Camille F., priority 2000, dated 2001).

Experiments:
[1] = test system: nicotinic acid vasomotor and antilipolytic effect; conditions: cited from earlier work; for effect on vasomotor and antilipolytic effect of nicotinic acid: prior administration of the prostaglandin synthesis inhibitor
[2] = in vivo; cited from earlier work
[3] = oral glucose tolerance test; cited from earlier work

In the case of O=C(O)c1cccnc1 [nicotinic acid], the use in diabetics ([1]; Molnar 1964) is listed as “contraindicated for diabetics”, the “effect on triglyceride hydrolysis to FFA and glycerol” value ([1]; in vivo) is listed as “inhibits triglyceride hydrolysis to FFA and glycerol” and the “cutaneous vasomotor reaction of nicotinic acid, consequence in patient care” value ([1]; nicotinic acid prescribed in patient care) is listed as “sufficiently undesirable as to be the principal cause for lack of compliance”. The “effect on blush area” value ([1]; nicotinic acid) was “transiently stimulate”, the “effect on plasma concentrations of nonesterified fatty acids” value ([1]; nicotinic acid) was “reduce” and the “onset of cutaneous reaction relative to peak serum concentration” value ([1]; nicotinic acid) was “the onset preceded peak serum PZA concentrations, as is the case also for the cutaneous reactions associated with nicotinic acid”.

For COc1ccc2c(c1)c(CC(=O)O)c(C)n2C(=O)c1ccc(Cl)cc1 [indomethacin], the “effect on vasomotor and antilipolytic effect of nicotinic acid” value [1] is listed as “abolish the vasomotor, but not the antilipolytic effect of nicotinic acid”.

In the case of NS(=O)(=O)c1cc2c(cc1Cl)NCNS2(=O)=O [hydrochlorothiazide], the effect on potassium [2] is listed as “kaliuresis” and the “effect on serum glucose and insulin” value [3] is listed as “increased serum glucose and insulin concentrations”.

For CC(=O)Oc1ccccc1C(=O)O [aspirin], the “effect on vasomotor and antilipolytic effect of nicotinic acid” value [1] is listed as “abolish the vasomotor, but not the antilipolytic effect of nicotinic acid”.
